Measured values: the kinase profiling compilation of Christmann-Franck et al. (2016)

Tests used:
Experiment in all cases: KINOMEscan competition binding
Conditions in all cases: compound 10.0 µM
[1] = target: CASK (human) (UniProt O14936)
[2] = target: CDKL1 (human) (UniProt Q00532)
[3] = test system: CPK1 (P.falciparum)
[4] = target: CRK2 (P.falciparum) (UniProt P61075)
[5] = target: CSNK1A1L (human) (UniProt Q8N752)
[6] = target: EPHB6 (human) (UniProt O15197)
[7] = target: ERN1 (human) (UniProt O75460)
[8] = target: GRK7 (human) (UniProt Q8WTQ7)
[9] = target: HIPK2 (human) (UniProt Q9H2X6)
[10] = target: HIPK3 (human) (UniProt Q9H422)
[11] = target: IRAK1 (human) (UniProt P51617)
[12] = target: LRRK2 (human) (UniProt Q5S007)
[13] = test system: LRRK2 (human), Q5S007 [G2019S]
[14] = target: MAP3K1 (human) (UniProt Q13233)
[15] = target: MAP3K15 (human) (UniProt Q6ZN16)
MAP3K15 (human), sequence (Q6ZN16 whole entry, looked up): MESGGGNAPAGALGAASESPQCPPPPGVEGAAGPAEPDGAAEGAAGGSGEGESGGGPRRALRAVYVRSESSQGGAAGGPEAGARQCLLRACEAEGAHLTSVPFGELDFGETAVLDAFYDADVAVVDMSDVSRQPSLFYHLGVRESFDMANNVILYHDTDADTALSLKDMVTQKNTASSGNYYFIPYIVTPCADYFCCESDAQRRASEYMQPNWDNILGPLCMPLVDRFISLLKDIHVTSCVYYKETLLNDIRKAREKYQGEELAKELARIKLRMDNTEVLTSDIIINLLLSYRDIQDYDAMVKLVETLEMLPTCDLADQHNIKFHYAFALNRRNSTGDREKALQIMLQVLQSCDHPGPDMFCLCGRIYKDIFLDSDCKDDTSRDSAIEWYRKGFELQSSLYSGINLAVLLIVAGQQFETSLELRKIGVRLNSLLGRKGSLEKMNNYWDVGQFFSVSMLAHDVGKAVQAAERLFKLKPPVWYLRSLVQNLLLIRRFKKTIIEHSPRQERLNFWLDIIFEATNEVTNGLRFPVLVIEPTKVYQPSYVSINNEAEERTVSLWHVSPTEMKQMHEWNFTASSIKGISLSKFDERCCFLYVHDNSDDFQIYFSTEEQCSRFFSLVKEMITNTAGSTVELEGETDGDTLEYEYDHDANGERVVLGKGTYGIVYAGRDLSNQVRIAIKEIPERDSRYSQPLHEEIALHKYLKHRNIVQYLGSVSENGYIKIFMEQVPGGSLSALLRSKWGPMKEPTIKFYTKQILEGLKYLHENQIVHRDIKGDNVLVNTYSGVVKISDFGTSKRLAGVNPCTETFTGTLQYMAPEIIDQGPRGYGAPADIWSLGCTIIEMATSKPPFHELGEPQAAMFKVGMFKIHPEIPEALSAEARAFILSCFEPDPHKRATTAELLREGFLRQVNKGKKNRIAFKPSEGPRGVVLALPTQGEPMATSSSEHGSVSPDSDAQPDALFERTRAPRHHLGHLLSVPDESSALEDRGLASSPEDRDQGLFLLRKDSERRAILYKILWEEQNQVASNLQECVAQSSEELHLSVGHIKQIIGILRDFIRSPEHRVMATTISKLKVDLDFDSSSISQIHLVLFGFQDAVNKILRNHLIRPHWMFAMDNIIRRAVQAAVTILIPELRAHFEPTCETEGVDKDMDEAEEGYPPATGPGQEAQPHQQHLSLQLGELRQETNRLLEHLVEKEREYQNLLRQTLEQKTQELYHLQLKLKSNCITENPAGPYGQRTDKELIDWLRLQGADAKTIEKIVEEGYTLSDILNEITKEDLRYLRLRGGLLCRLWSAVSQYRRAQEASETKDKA

[16] = target: MAP3K6 (human) (UniProt O95382)
[17] = target: MARK2 (human) (UniProt Q7KZI7)
[18] = target: MARK3 (human) (UniProt P27448)
[19] = target: MAST1 (human) (UniProt Q9Y2H9)
[20] = test system: MET (human), P08581 [M1250T]
[21] = target: MTOR (human) (UniProt P42345)
[22] = target: NEK3 (human) (UniProt P51956)
NEK3 (human), sequence (P51956 whole entry, looked up): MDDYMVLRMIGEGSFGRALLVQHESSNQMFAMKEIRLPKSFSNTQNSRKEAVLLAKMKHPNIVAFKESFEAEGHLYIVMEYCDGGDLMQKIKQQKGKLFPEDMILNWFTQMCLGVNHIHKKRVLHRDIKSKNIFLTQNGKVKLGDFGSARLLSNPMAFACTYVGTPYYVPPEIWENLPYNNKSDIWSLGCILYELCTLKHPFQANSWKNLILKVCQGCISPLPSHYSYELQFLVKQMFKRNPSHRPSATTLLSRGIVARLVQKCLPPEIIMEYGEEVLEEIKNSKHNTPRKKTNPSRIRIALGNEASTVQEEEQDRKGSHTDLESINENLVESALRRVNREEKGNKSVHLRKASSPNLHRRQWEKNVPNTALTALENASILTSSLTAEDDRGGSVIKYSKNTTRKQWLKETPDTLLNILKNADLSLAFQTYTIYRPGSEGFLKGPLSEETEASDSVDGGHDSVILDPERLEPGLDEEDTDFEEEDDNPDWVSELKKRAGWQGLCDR

[23] = target: NEK4 (human) (UniProt P51957)
[24] = target: PAK3 (human) (UniProt O75914)
PAK3 (human), sequence (O75914 whole entry, looked up): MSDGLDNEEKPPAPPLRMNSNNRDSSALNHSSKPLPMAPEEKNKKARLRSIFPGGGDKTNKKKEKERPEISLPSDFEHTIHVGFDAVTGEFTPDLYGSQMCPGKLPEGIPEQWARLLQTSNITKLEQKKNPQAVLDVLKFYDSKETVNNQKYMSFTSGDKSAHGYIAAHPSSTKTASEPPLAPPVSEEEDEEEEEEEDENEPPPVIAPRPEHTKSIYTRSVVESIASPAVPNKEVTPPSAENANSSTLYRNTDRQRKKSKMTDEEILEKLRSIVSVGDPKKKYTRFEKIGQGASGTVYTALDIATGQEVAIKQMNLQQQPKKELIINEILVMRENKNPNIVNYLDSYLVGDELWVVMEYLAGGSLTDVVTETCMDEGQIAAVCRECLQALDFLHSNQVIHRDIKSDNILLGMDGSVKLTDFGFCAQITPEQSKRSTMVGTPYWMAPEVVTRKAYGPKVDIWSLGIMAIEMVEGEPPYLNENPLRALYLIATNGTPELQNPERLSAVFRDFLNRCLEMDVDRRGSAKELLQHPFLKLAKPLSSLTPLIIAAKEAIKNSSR

[25] = target: PI4KB (human) (UniProt Q9UBF8)
[26] = target: PIK3C2G (human) (UniProt O75747)
[27] = test system: PIK3CA (human), P42336 [C420R]
[28] = test system: PIK3CA (human), P42336 [E542K]
[29] = test system: PIK3CA (human), P42336 [H1047Y]
[30] = test system: PIK3CA (human), P42336 [M1043I]
[31] = target: PIP5K1C (human) (UniProt O60331)
[32] = target: PRPF4B (human) (UniProt Q13523)
PRPF4B (human), sequence (Q13523 whole entry, looked up): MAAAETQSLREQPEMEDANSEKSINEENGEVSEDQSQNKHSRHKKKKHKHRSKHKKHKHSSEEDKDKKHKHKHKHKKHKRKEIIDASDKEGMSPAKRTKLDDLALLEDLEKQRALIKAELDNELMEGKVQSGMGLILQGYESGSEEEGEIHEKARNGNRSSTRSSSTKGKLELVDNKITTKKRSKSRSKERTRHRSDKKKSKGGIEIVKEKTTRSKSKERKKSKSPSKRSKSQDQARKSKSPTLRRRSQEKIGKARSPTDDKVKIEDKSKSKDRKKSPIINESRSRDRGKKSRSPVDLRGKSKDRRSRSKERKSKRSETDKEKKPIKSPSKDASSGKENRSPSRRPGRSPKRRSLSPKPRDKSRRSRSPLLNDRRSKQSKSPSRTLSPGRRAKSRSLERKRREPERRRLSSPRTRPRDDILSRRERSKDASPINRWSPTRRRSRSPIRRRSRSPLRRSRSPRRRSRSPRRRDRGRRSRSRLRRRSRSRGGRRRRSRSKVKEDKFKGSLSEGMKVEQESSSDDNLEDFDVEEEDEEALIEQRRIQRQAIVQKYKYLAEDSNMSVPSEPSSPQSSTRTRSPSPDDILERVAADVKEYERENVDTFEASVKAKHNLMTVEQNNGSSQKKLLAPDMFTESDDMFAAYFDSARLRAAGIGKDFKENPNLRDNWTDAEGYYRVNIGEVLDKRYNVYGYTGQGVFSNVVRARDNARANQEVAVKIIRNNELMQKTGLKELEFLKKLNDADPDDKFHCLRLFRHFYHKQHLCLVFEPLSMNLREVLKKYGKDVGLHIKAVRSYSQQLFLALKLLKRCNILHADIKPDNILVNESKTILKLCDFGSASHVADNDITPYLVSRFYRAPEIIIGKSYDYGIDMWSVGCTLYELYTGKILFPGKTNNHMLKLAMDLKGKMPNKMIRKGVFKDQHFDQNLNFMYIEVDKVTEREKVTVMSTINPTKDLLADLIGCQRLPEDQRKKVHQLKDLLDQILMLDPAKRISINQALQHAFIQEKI

[33] = target: ROCK1 (human) (UniProt Q13464)
[34] = target: SGK110 (human) (UniProt P0C264)
[35] = target: SNRK (human) (UniProt Q9NRH2)
[36] = target: STK32A (human) (UniProt Q8WU08)
[37] = target: TAOK2 (human) (UniProt Q9UL54)
TAOK2 (human), sequence (Q9UL54 whole entry, looked up): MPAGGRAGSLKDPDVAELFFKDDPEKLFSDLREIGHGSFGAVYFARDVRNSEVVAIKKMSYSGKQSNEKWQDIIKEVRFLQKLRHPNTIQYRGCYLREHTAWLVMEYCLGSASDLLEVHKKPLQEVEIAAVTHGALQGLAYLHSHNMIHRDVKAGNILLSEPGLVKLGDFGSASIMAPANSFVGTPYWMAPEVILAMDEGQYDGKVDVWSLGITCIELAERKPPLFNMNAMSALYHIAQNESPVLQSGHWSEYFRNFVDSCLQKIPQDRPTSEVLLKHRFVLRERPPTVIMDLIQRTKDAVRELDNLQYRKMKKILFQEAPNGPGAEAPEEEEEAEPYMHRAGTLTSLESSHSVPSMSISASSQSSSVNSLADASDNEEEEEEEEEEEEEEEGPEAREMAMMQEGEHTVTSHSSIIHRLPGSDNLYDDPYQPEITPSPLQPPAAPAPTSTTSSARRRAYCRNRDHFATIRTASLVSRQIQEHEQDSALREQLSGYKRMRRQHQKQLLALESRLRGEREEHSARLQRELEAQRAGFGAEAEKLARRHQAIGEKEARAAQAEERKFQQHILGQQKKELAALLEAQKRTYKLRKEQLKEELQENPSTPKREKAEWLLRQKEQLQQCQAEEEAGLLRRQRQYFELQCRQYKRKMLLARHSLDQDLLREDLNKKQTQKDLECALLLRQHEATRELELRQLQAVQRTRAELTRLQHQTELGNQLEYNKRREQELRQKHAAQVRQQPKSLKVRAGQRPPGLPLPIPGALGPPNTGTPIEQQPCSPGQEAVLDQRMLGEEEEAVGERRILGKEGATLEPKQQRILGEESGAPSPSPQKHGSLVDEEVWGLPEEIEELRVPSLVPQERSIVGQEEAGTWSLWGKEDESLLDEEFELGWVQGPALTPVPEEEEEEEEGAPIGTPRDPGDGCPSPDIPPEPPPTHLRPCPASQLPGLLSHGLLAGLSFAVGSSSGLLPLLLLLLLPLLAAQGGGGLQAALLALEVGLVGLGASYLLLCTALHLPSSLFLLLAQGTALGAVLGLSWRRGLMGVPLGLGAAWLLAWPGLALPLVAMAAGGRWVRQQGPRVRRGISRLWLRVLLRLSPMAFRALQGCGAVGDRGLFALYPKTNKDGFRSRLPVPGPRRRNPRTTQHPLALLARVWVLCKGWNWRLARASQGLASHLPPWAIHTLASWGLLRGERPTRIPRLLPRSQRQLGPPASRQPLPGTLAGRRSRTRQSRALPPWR

[38] = target: TRPM6 (human) (UniProt Q9BX84)
[39] = target: VRK2 (human) (UniProt Q86Y07)
[40] = test system: ABL1 (human), P00519 [F317L]
[41] = test system: ABL1 (human), P00519 [Q252H]
[42] = test system: ABL1 (human), P00519 [T315I]

CDKL1 (human), sequence (Q00532 whole entry, looked up): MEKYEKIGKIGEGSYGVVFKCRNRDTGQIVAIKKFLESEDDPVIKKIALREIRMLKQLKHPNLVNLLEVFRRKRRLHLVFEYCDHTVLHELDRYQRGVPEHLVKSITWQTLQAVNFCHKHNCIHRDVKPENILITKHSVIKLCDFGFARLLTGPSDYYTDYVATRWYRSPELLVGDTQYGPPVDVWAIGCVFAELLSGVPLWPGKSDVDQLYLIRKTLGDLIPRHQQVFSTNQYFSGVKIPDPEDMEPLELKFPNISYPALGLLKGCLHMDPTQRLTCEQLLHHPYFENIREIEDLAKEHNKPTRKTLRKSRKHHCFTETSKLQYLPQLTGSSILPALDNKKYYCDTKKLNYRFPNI

CCN1CCN(Cc2ccc(NC(=O)c3ccc(C)c(/C=C/c4cnc(Nc5cc(N6CCNCC6)nc(C)n5)cn4)c3)cc2C(F)(F)F)CC1
kinase still bound, per cent of control [1]: 72% | kinase still bound, per cent of control [2]: 61% | kinase still bound, per cent of control [3]: 0.2% | kinase still bound, per cent of control [4]: 55% | kinase still bound, per cent of control [5]: 99% | kinase still bound, per cent of control [6]: 1.6% | kinase still bound, per cent of control [7]: 71% | kinase still bound, per cent of control [8]: 73% | kinase still bound, per cent of control [9]: 49% | kinase still bound, per cent of control [10]: 48% | kinase still bound, per cent of control [11]: 50% | kinase still bound, per cent of control [12]: 63% | kinase still bound, per cent of control [13]: 75% | kinase still bound, per cent of control [14]: 75% | kinase still bound, per cent of control [15]: 100% | kinase still bound, per cent of control [16]: 93% | kinase still bound, per cent of control [17]: 100% | kinase still bound, per cent of control [18]: 58% | kinase still bound, per cent of control [19]: 87% | kinase still bound, per cent of control [20]: 89% | kinase still bound, per cent of control [21]: 100% | kinase still bound, per cent of control [22]: 59% | kinase still bound, per cent of control [23]: 28% | kinase still bound, per cent of control [24]: 14% | kinase still bound, per cent of control [25]: 63% | kinase still bound, per cent of control [26]: 87% | kinase still bound, per cent of control [27]: 80% | kinase still bound, per cent of control [28]: 94% | kinase still bound, per cent of control [29]: 68% | kinase still bound, per cent of control [30]: 73% | kinase still bound, per cent of control [31]: 65% | kinase still bound, per cent of control [32]: 85% | kinase still bound, per cent of control [33]: 100% | kinase still bound, per cent of control [34]: 100% | kinase still bound, per cent of control [35]: 84% | kinase still bound, per cent of control [36]: 100% | kinase still bound, per cent of control [37]: 5.7% | kinase still bound, per cent of control [38]: 67% | kinase still bound, per cent of control [39]: 62%

COc1cc(N2CCC(N3CCN(C)CC3)CC2)ccc1Nc1ncc(Cl)c(Nc2ccccc2S(=O)(=O)C(C)C)n1
kinase still bound, per cent of control [40]: 0.7% | kinase still bound, per cent of control [41]: 2.2% | kinase still bound, per cent of control [42]: 0.1%

CCOc1cc(N2CCC(N3CCCCC3)CC2)ccc1Nc1nc(Nc2ccccc2S(=O)(=O)C(C)C)c2cn[nH]c2n1
kinase still bound, per cent of control [1]: 100% | kinase still bound, per cent of control [2]: 100% | kinase still bound, per cent of control [3]: 44% | kinase still bound, per cent of control [4]: 100% | kinase still bound, per cent of control [5]: 78% | kinase still bound, per cent of control [6]: 71% | kinase still bound, per cent of control [7]: 92% | kinase still bound, per cent of control [8]: 100% | kinase still bound, per cent of control [9]: 89% | kinase still bound, per cent of control [10]: 79% | kinase still bound, per cent of control [11]: 93% | kinase still bound, per cent of control [12]: 0.65% | kinase still bound, per cent of control [13]: 4.8% | kinase still bound, per cent of control [14]: 82% | kinase still bound, per cent of control [15]: 77% | kinase still bound, per cent of control [16]: 99% | kinase still bound, per cent of control [17]: 86% | kinase still bound, per cent of control [18]: 100% | kinase still bound, per cent of control [19]: 46% | kinase still bound, per cent of control [20]: 100% | kinase still bound, per cent of control [21]: 86% | kinase still bound, per cent of control [22]: 76% | kinase still bound, per cent of control [23]: 74% | kinase still bound, per cent of control [24]: 59% | kinase still bound, per cent of control [25]: 58% | kinase still bound, per cent of control [26]: 100% | kinase still bound, per cent of control [27]: 100% | kinase still bound, per cent of control [28]: 100% | kinase still bound, per cent of control [29]: 100% | kinase still bound, per cent of control [30]: 100% | kinase still bound, per cent of control [31]: 82% | kinase still bound, per cent of control [32]: 100% | kinase still bound, per cent of control [33]: 4.8% | kinase still bound, per cent of control [34]: 100% | kinase still bound, per cent of control [35]: 40% | kinase still bound, per cent of control [36]: 32% | kinase still bound, per cent of control [37]: 66% | kinase still bound, per cent of control [38]: 100% | kinase still bound, per cent of control [39]: 68%

CCN1CCN(Cc2ccc(NC(=O)c3ccc(C)c(Oc4ccnc5[nH]ccc45)c3)cc2C(F)(F)F)CC1
kinase still bound, per cent of control [40]: 0.1% | kinase still bound, per cent of control [41]: 0.4% | kinase still bound, per cent of control [42]: 0%
